Data set [1] deals with breast cancer. As to the kind of experiment: 96 hour continuous infusion every 21 days in breast cancer patients. The settings on record: 70-140 mg/M^2/96 hrs every 21 days.
Data set [2] relates to diffuse large cell lymphoma. As to the kind of experiment: 96 hour continuous infusion every 21 days in lymphoma patients. Format: in vivo, human. The settings on record: 70-140 mg/M^2/96 hrs every 21 days. The text has this:
This 96 hr continuous infusion was repeated every 21 days, while patients were monitored for a response after every two cycles.

For a further data set, the system named is patients. The note with it: infusion times up to 24 hours; cited from earlier work.
A further data set relates to mammalian cells. The settings on record: actively dividing cells; cited from earlier work.
For data set [3], the system named is breast cancer. The note with it: 24 hour infusion at 250 mg/M^2; similar breast cancer patient group; cited from earlier work.
Data set [4] relates to refractory acute leukemia. The note with it: cited from earlier work.
Another data set concerns melanoma. The note with it: 30 patients with melanoma; 250 mg/M^2 as 24 hour continuous infusion; cited from earlier work.
A further data set has as its system ovarian cancer. The settings on record: 34 patients with ovarian cancer; 250 mg/M^2 as 24 hour continuous infusion; cited from earlier work.
The mark [5] stands for this setting: 6 patients with diffuse large cell lymphoma.

On to `CC(=O)O[C@H]1C(=O)[C@@]2(C)[C@H]([C@H](OC(=O)c3ccccc3)[C@]3(O)C[C@H](OC(=O)[C@H](O)[C@@H](NC(=O)c4ccccc4)c4ccccc4)C(C)=C1C3(C)C)[C@]1(OC(C)=O)CO[C@@H]1C[C@@H]2O` [Taxol], for which, in the data set on breast cancer [1] (11 breast cancer patients), the “number of minor remissions (MR)” value worked out at 2 patients, the “number of partial remissions (PR)” value is 7 patients, the partial remission rate is 64% and the total response rate is listed as 82%. In the data set with breast cancer [1] (breast cancer, prior doxorubicin or mitoxantrone regimen), the “patients with positive response (PR + MR)” value is 9 out of the 11. In addition, in data set [2] (setting [5]), the “number of minor remissions (MR)” value is on record as 1 patients, the “number of partial remissions (PR)” value came out at 3 patients and the partial remission rate came to 50%. For the same compound, the “patients in whom Taxol was active (PR + MR)” value in data set [2] (diffuse large cell lymphoma) is reported as 4 out of 6. For the same compound, the dose limiting toxicity result in the data set on patients was “reversible myclosuppression”. Further, the “Taxol concentration that usually causes a significant increase in microtubule number, changes in cell shape and mitotic arrest” value in the data set with mammalian cells was 50 Nm. Further, the response rate in the data set with breast cancer [3] is given as 33%. For the same compound, the “toxicity limiting further dose escalation” value in data set [4] (17 patients, 24 hour continuous infusion, 200 to 390 mg/M^2) is “Severe mucositis”. For the same compound, in data set [4] (17 patients, 24 hour continuous infusion, escalated from 200 to 390 mg/M^2), the maximum tolerated dose is 390 mg/M^2. Moreover, in data set [4] (of 17 patients), the “patients with transient reductions in peripheral blood and bone marrow blasts” value is on record as “Nine”. For the same compound, in the data set on melanoma, the objective response rate is 13%. Moreover, in the data set on ovarian cancer, the major toxicities entry is “neutropenia and peripheral neuropathy”; the objective response rate is on record as 21%.

The record behind these values is patent USRE40839E1 (The United States of America as represented by the …, priority 1992, dated 2009).
